Source: BindingDB's records for doi:10.1158/1535-7163.MCT-06-0397 (Loma Linda University, 2007)

Biological target: Serine/threonine-protein kinase pim-1 (Homo sapiens, UniProt P11309)
Test: Solid-Phase ELISA Kinase Assay
Details: pH 7; 30 °C
Experimental: The 96-well flat-bottomed plates were coated with recombinant GST-BAD. After the plates were blocked, the reaction buffer containing test compound and recombinant GST-PIM1 kinase were added to each well. Phosphorylated GST-BAD was detected by an ELISA reaction. The level of phosphorylated GST-BAD present was proportional to the absorbance at 450 nm. Curve fitting and enzyme analyses were done using GraphPad Prism version 4.00 (GraphPad Software, San Diego, CA).

Sequence of Serine/threonine-protein kinase pim-1 (P11309 whole entry): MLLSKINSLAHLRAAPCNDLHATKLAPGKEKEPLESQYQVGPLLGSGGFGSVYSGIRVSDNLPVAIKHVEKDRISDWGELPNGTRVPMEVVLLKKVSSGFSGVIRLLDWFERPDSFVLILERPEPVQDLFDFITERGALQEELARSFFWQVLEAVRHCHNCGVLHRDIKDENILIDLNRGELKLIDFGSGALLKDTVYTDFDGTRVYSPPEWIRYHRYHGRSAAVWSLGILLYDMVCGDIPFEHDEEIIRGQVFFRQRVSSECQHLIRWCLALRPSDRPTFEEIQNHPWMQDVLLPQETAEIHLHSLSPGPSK

| SMILES | IC50 [µM] |
| --- | --- |
| O=c1c(O)c(-c2cc(O)c(O)c(O)c2)oc2cc(O)cc(O)c12 | 0.78 |
| O=c1c(O)c(-c2ccc(O)c(O)c2)oc2c(O)c(O)cc(O)c12 | 0.43 |
| O=C1C[C@@H](c2ccccc2)Oc2cc(O)cc(O)c21 | 107 |
| O=c1c(O)c(-c2ccc(O)cc2)oc2cc(O)cc(O)c12 | 1.3 |
| O=c1c(O)c(-c2ccc(O)cc2O)oc2cc(O)cc(O)c12 [2-(2,4-dihydroxyphenyl)-3,5,7-trihydroxychromen-4-one] | 2.7 |
| O=c1cc(-c2ccc(O)c(O)c2)oc2cc(O)cc(O)c12 [2-(3,4-dihydroxyphenyl)-5,7-dihydroxy-4H-chromen-4-one] | 1.6 |
| O=c1cc(-c2ccccc2)oc2cc(O)cc(O)c12 [5,7-dihydroxy-2-phenyl-4H-chromen-4-one] | 15 |
| O=c1cc(-c2ccccc2)oc2cc(O)ccc12 [7-Hydroxy-flavone, 5a] | 14 |
| O=c1cc(-c2cccc(O)c2)oc2cc(O)ccc12 [7-hydroxy-2-(3-hydroxyphenyl)-4H-chromen-4-one] | 4.52 |
| O=c1cc(-c2ccc(O)cc2)oc2cc(O)cc(O)c12 [Naringenin, 18] | 0.94 |

More lines, in order of falling IC50, values ahead:

| IC50 [µM] | SMILES |
| --- | --- |
| 60.2 | O=C1C[C@H](c2ccccc2)Oc2cc(O)cc(O)c21 [(2R)-5,7-dihydroxy-2-phenyl-3,4-dihydro-2H-1-benzopyran-4-one] |
| 22 | O=c1cc(-c2ccc(O)cc2)oc2c(O)c(O)ccc12 |
| 12.5 | CC(C)=CCc1c(O)cc(O)c2c1O[C@H](c1ccccc1)CC2=O [(2S)-5,7-dihydroxy-8-(3-methylbut-2-en-1-yl)-2-phenyl-3,4-dihydro-2H-1-benzopyran-4-one] |
| 8.3 | O=c1c(O)c(-c2ccc(O)cc2O)oc2ccc(O)cc12 [2-(2,4-dihydroxyphenyl)-3,6-dihydroxy-4H-chromen-4-one] |
| 7.8 | O=c1cc(-c2cc(O)c(O)c(O)c2)oc2cc(O)ccc12 [7-hydroxy-2-(3,4,5-trihydroxyphenyl)-4H-chromen-4-one] |
| 4.6 | O=c1c(O)c(-c2ccccc2)oc2cc(O)ccc12 [3,7-dihydroxy-2-phenyl-4H-chromen-4-one] |
| 0.98 | O=c1c(O)c(-c2ccc(O)cc2)oc2cc(O)ccc12 [3,7-dihydroxy-2-(4-hydroxyphenyl)-4H-chromen-4-one] |
| 0.85 | O=c1c(O)c(-c2ccc(O)c(O)c2)oc2cc(O)ccc12 [2-(3,4-dihydroxyphenyl)-3,7-dihydroxy-chromen-4-one] |
